Experiments:
[1] = system: K. pn GC 2391 (pl 5.4; 5.6; 7.6; 8.7 B-lactamases); assay: MIC microbroth dilution; β-lactamase class A, A (ESBL), C; format: cell-based, K. pneumoniae; conditions: Cefepime + 4 ug/ml Compound 1
Method: (§1) The in vitro activities of the antibiotics were determined by the microbroth dilution method as recommended by the National Committee for Clinical Laboratory Standards (NCCLS). (NCCLS. 2000. Methods for Dilution Antimicrobial Susceptibility Tests for Bacteria That Grow Aerobically; Approved Standards: M7-A5, vol. 19. National Committee for Clinical Laboratory Standards, Villanova, Pa.). Mueller-Hinton II broth (MHBII)(BBL Cockeysville, Md.), was used for the testing procedure. […]. The plates were incubated for 18-22 hours at 35° C. in ambient air.

[2] = system: S. maltophilia GC 1712 (L1); assay: MIC microbroth dilution; β-lactamase class B; format: cell-based; conditions: Cefepime + 4 ug/ml Compound 1
Method: as §1

[3] = system: K. pneumoniae GC 7635 SHV-1, KPC2; assay: MIC microbroth dilution; β-lactamase class A, A (Cb'ase); format: cell-based; conditions: Cefepime + 4 ug/ml Compound 1
Method: as §1

[4] = system: K. pneumoniae GC 2825 Act 1 + 3 additional; assay: MIC microbroth dilution; β-lactamase class A, A (ESBL), C; format: cell-based; conditions: Cefepime + 4 ug/ml Compound 1
Method: as §1

[5] = system: E. coli GC 6197 (TEM-1 + SHV-7 + CMY-2); assay: as above; format: cell-based; conditions: Cefepime + 4 ug/ml Compound 1
Method: as §1

[6] = system: K. pneumoniae GC 2826 Act 1 + 3 additional; assay: as above; format: cell-based; conditions: Cefepime + 4 ug/ml Compound 1
Method: as §1

[7] = system: E. coli GC 2149 (ACT-1; TEM-1 + pl 5.6); assay: as above; format: cell-based; conditions: Cefepime + 4 ug/ml Compound 1
Method: as §1

[8] = system: K. pneumoniae GC 7632 TEM-1 KPC-2, SHV-7, SHV-12; assay: MIC microbroth dilution; β-lactamase class A, A (Cb'ase), A (ESBL); format: cell-based; conditions: Cefepime + 4 ug/ml Compound 1
Method: as §1

[9] = system: A. baumannii GC 6660 IMI-R; assay: MIC microbroth dilution; class PBP (penicillin binding protein); format: cell-based; conditions: Cefepime + 4 ug/ml Compound 1
Method: as §1

[10] = system: A. baumannii GC 6661 IMI-R; assay: as above; format: cell-based; conditions: Cefepime + 4 ug/ml Compound 1
Method: as §1

[11] = system: A. baumannii GC 6662 IMI-R; assay: as above; format: cell-based; conditions: Cefepime + 4 ug/ml Compound 1
Method: as §1

[12] = system: E. coli GC 4971 OXA-1, TEM-1; assay: MIC microbroth dilution; β-lactamase class A, D; format: cell-based; conditions: Cefepime + 4 ug/ml Compound 1
Method: as §1

E. coli GC 2920 (IRT-2) = assay: MIC microbroth dilution; β-lactamase class A (IRT); format: cell-based; conditions: Cefepime + 4 ug/ml Compound 1
Method: as §1

[13] = system: E. coli GC 2017 (TEM-10 + pl 6.3; 8.1); assay: MIC microbroth dilution; β-lactamase class A (ESBL); format: cell-based; conditions: Cefepime + 4 ug/ml Compound 1
Method: as §1

E. coli GC 1995 (TEM-10) = assay: as above; format: cell-based; conditions: Cefepime + 4 ug/ml Compound 1
Method: as §1

[14] = system: S. typhimurium GC 4197 CTX-M-5; assay: as above; format: cell-based; conditions: Cefepime + 4 ug/ml Compound 1
Method: as §1

E. coli GC 2300 (TEM-28) = assay: as above; format: cell-based; conditions: Cefepime + 4 ug/ml Compound 1
Method: as §1

E. coli GC 2400 (TEM-43) = assay: as above; format: cell-based; conditions: Cefepime + 4 ug/ml Compound 1
Method: as §1

E. coli GC 1684 (TEM-10) = assay: as above; format: cell-based; conditions: Cefepime + 4 ug/ml Compound 1
Method: as §1

E. coli GC 6368 (SHV-7) = assay: as above; format: cell-based; conditions: Cefepime + 4 ug/ml Compound 1
Method: as §1

E. coli GC 2804 (imp) = assay: MIC microbroth dilution; β-lactamase class none; format: cell-based; conditions: Cefepime + 4 ug/ml Compound 1
Method: as §1

E. coli GC 2844 (none) = assay: MIC microbroth dilution; β-lactamase class none; format: cell-based; conditions: Cefepime + 4 ug/ml Compound 1
Method: as §1

[15] = system: E. coli ATCC 25922 (none); assay: MIC microbroth dilution; β-lactamase class none; format: cell-based; conditions: E. coli ATCC 25922; Cefepime + 4 ug/ml Compound 1
Method: as §1

[16] = system: C. freundii GC 4171 TEM-1 + InducibleAmpC; assay: MIC microbroth dilution; β-lactamase class A, C; format: cell-based; conditions: C. freundii GC 4171; Cefepime + 4 ug/ml Compound 1
Method: as §1

[17] = system: E. cloacae GC 7065 TEM-26, SHV-12 Amp C inducable; assay: MIC microbroth dilution; β-lactamase class A (ESBL), C; format: cell-based; conditions: Cefepime + 4 ug/ml Compound 1
Method: as §1

[18] = system: E. cloacae GC 7052 SHV-5, Amp C inducable; assay: as above; format: cell-based; conditions: Cefepime + 4 ug/ml Compound 1
Method: as §1

[19] = system: E. aerogenes GC 7039 TEM-4, Amp C inducable; assay: as above; format: cell-based; conditions: Cefepime + 4 ug/ml Compound 1
Method: as §1

[20] = system: M. morganii GC 1617 TEM-10 + inducible AmpC; assay: as above; format: cell-based; conditions: Cefepime + 4 ug/ml Compound 1
Method: as §1

[21] = system: E. aerogenes GC 7036 TEM-24, Amp C inducable; assay: as above; format: cell-based; conditions: Cefepime + 4 ug/ml Compound 1
Method: as §1

[22] = system: E. coli GC 1499 (TEM-4 + TEM-1); assay: MIC microbroth dilution; β-lactamase class A, A (ESBL); format: cell-based; conditions: Cefepime + 4 ug/ml Compound 1
Method: as §1

[23] = system: E. coli GC 2015 (TEM-10 + SHV-1); assay: as above; format: cell-based; conditions: Cefepime + 4 ug/ml Compound 1
Method: as §1

[24] = system: E. coli GC 2146 (TEM-1; SHV-7); assay: as above; format: cell-based; conditions: Cefepime + 4 ug/ml Compound 1
Method: as §1

[25] = system: E. coli GC 6260 (TEM-1 + SHV-5); assay: as above; format: cell-based; conditions: Cefepime + 4 ug/ml Compound 1
Method: as §1

[26] = system: E. coli GC 1695 (TEM-1 + TEM-10); assay: as above; format: cell-based; conditions: Cefepime + 4 ug/ml Compound 1
Method: as §1

[27] = system: E. coli GC 5901 (TEM-1 and SHV-8); assay: as above; format: cell-based; conditions: Cefepime + 4 ug/ml Compound 1
Method: as §1

Q: Which MIC [1] does the source give for `O=C([O-])C1=CS[C@@H]2/C(=C\c3cn4c(n3)CCC4)C(=O)N12.[Na+]` [Compound 1, (5R), (6Z)-6-(6,7-Dihydro-5H-pyrrolo[1,2-a]imidazol-2-ylmethylene)-7-oxo-4-thia-1-aza-bicyclo[3.2.0]hept-2-ene-2-carboxylic Acid, Sodium Salt] here?
A: 0.50 µg/mL

Q: And the MIC [2]?
A: 16 µg/mL

Q: And the MIC [3]?
A: 8 µg/mL

Q: What about the MIC [4] of the same compound?
A: 0.12 µg/mL

Q: And the MIC [5]?
A: 4 µg/mL

Q: What about the MIC [6] of the same compound?
A: 1 µg/mL

Q: What about the MIC [7] of the same compound?
A: 0.50 µg/mL

Q: And the MIC [8]?
A: 16 µg/mL

Q: What about the MIC [9] of the same compound?
A: >16 µg/mL

Q: What about the MIC [10] of the same compound?
A: 16 µg/mL

Q: And the MIC [11]?
A: >16 µg/mL

Q: What about the MIC [12] of the same compound?
A: 0.12 µg/mL

Q: What about the MIC (E. coli GC 2920 (IRT-2)) of the same compound?
A: 0.06 µg/mL

Q: And the MIC [13]?
A: 0.12 µg/mL

Q: What about the MIC (E. coli GC 1995 (TEM-10)) of the same compound?
A: 0.06 µg/mL

Q: What about the MIC [14] of the same compound?
A: 1 µg/mL

Q: What about the MIC (E. coli GC 2300 (TEM-28)) of the same compound?
A: 0.25 µg/mL

Q: And the MIC (E. coli GC 2400 (TEM-43))?
A: 0.50 µg/mL

Q: And the MIC (E. coli GC 1684 (TEM-10))?
A: 0.06 µg/mL

Q: What about the MIC (E. coli GC 6368 (SHV-7)) of the same compound?
A: 0.03 µg/mL

Q: And the MIC (E. coli GC 2804 (imp))?
A: <0.015 µg/mL

Q: What about the MIC (E. coli GC 2844 (none)) of the same compound?
A: 0.06 µg/mL

Q: What about the MIC [15] of the same compound?
A: 0.03 µg/mL

Q: And the MIC [16]?
A: 0.06 µg/mL

Q: And the MIC [17]?
A: 0.06 µg/mL

Q: And the MIC [18]?
A: 1 µg/mL

Q: And the MIC [19]?
A: 0.03 µg/mL

Q: What about the MIC [20] of the same compound?
A: 0.12 µg/mL

Q: And the MIC [21]?
A: 0.06 µg/mL

Q: And the MIC [22]?
A: 0.50 µg/mL

Q: And the MIC [23]?
A: 0.25 µg/mL

Q: What about the MIC [24] of the same compound?
A: 0.12 µg/mL

Q: What about the MIC [25] of the same compound?
A: 0.03 µg/mL

Q: What about the MIC [26] of the same compound?
A: 0.03 µg/mL

Q: And the MIC [27]?
A: 4 µg/mL

Source: patent publication US20070129344A1, “Bicyclic 6-alkylidene-penem beta-lactamase inhibitors and beta-lactam antibiotic combination: a broad spectrum antibiotic” (priority 2005, published 2007)
